| melting point [°C] | Structure (SMILES) |
| --- | --- |
| 189 to 190 | Cc1nc(N)ccc1NC(=NC#N)Oc1ccccc1 |
| 85 to 87 | CCN(CC)CCOc1ccc(Nc2nccc(-c3ccncc3)n2)cc1 |
| 125 to 132 | CC(C)(C)c1ccc(N)nn1 |
| 110 to 111 | COCN(c1cccc2cc(-c3ncnn3C)n(COC)c12)S(=O)(=O)c1cccs1 |
| 228 to 229 | NC(=O)N1C(=O)C(C(=O)c2ccc(Br)s2)c2cc(Cl)ccc21 (stereo unspecified) |
| > 300 | COc1ccc2c(c1)Cc1c([nH]cnc1=O)N2 |
| 146 to 150 | CC(=O)OCc1ccc2oc(=O)c(C(=O)Oc3cc(Cl)cc(Cl)c3)cc2c1 |
| 204 to 207 | Cc1ccc(-c2nc(-c3ccc(O)cc3O)nc(-c3ccc(O)cc3O)n2)c(C)c1 |
| 220 to 221 | Cc1ccc2sc(-c3ccccn3)nc(=O)c2c1 |
| 148 to 150 | CC(C)(C)c1ccc(OCCOc2ccccc2N)c(N)c1 |
| 163 to 165 | COCCn1nc2c(N)nc3c(c2c1CC(C)(C)O)CCCC3 |
| 109 to 111 | CCOC(=O)COc1ccc(Nc2nccc(-c3ccncc3)n2)cc1 |
| 200 | CC1=C(n2ccccc2=O)c2cc([N+](=O)[O-])ccc2OC1(C)C |
| 86 to 91 | CN=C(N)Nc1nc(CSCCNC2=NS(=O)N=C2N)cs1 (stereo unspecified) |
| 100 to 107 | COCCN(C)Cc1cc(C(=O)Nc2nc3c(OC)ccc(C4COCCOC4)c3s2)ccn1 |
| 186 to 187 | CCN1C(=O)CCCc2c1ccc(Nc1ncc(Cl)c(Nc3ccc(N4CCN(C)CC4)cc3OC)n1)c2OC |

| melting point [°C] | Structure (SMILES) |
| --- | --- |
| 134 to 137 | CCOC(=O)Cc1nn(Cc2ccc(Cl)c(Cl)c2)c(=O)c2c(C)cccc12 |
| 135 to 138 | Cc1ccc(S(=O)(=O)OCCC2COc3cc(Cl)c(Cl)cc3O2)cc1 (stereo unspecified) |
| 120 | CS(=O)(=O)c1nnc(-c2ccco2)s1 |
| 248 to 249 | CC1(C)Oc2ccsc2C(NC(=O)c2cccnc2)C1O (stereo unspecified) |
| 94 to 96 | Oc1cc(-c2ncc(C(F)(F)F)cc2F)c(F)cc1Cl |
| 195 to 198 | CC(C)c1ccc2c(c1)OC1(O)c3ccccc3C(=O)C21O (stereo unspecified) |
| 106 | CCCc1c2c(c(C(C)(C)C)c(OC(C)=O)c1C(C)(C)C)CC(C)(C)O2 |
| 76 to 77 | CC(=O)c1nc2cc(Cl)ccc2cc1OCc1ccccc1 |
| 228 to 230 | O=C(O)Cn1cc(Cc2nc3c(F)c(F)cc(F)c3s2)c2cccc(Cl)c21 |
| 210 to 211 | CN(C)c1nc(N)c(-c2nc(N)no2)nc1Cl |
| 181 to 185 | COc1ccc(Nc2ccc(Nc3nc(C)nc4cc(-c5ccccc5)sc34)cc2)cc1 |
| 101 to 104 | Nc1nc(CCCCN2CCN(c3ncccn3)CC2)cs1 |
| 198 to 199 | O=C(c1ccccc1)N1Cc2c(-c3noc(C4CC4)n3)ncn2-c2ccccc21 |
| 142 to 143 | CSc1ccc(Nc2cc(-c3nnc(C(C)(C)OC(C)=O)o3)ccn2)cc1 |
| 243 | Cc1cc(-c2ncn3c(C(F)(F)F)cc(-c4ccc(C(F)(F)F)c(C)c4)nc23)ccn1 |

The next lines start with the compound.

| Structure (SMILES) | melting point [°C] |
| --- | --- |
| CCOC(=O)c1cn(-c2nc(NC(C)(C)C)c(F)cc2F)c2c(C)c(F)c(F)cc2c1=O | 207 to 211 |
| O=C1Cn2c(c(Br)c3ccccc32)-c2ccccc2N1 | 247 to 249 |
| O=C(c1ccccc1)c1ccc2nccnc2c1 | 120 |
| CC(C)C1=NCCSC1=NO | 167 to 169 |
| CC(NC(=O)CCCBr)c1ccccc1 (stereo unspecified) | 62 to 63 |
| CCCCCCCN(O)C(=O)N(C)C | 30 to 31 |
| CC(C#N)c1ccc2oc(=S)[nH]c2c1 (stereo unspecified) | 173 to 176 |
| CN1C(=O)CCC2(C)C3CCC4(C)C(Oc5ccc([N+](=O)[O-])cc5)CCC4C3CCC12 (stereo unspecified) | 183 to 184 |
| Oc1ccc2c(c1)CCCC(c1ccccc1)=C2c1ccc(OCCCCCCl)cc1 | 200 to 202 |
| CC1(C)OC(C)(C)C(=NO)C1=NO | 252 |
| O=C1C2CCCC2=Nc2ccc(F)cc2N1Cc1ccccc1 (stereo unspecified) | 158 to 159 |
| CCn1ncc2c(NCc3ccc(OCCN4CCOCC4)cc3)c3ccccc3nc21 | 170 to 172 |
| O=S1(=O)c2cccc3cccc(c23)N1CCN1CCC(CC2C=Cc3ccccc32)CC1 (stereo unspecified) | 166 |
| CC1=C(c2ccncc2)SC(O)C(=O)N1 (stereo unspecified) | 214 |
| CC1(C)OC(=O)C(Oc2ccc(F)c(F)c2)=C1c1ccc(S(C)(=O)=O)cc1 | 93 to 95 |
| CC(C)(C)OC(=O)C(ON)c1ccccc1 (stereo unspecified) | 48.2 to 49.6 |
| O=C(Nc1ccc(F)cc1)NN1CC=C(c2ccccc2)CC1 | 200 to 212 |
| COc1ccc(Nc2c(C#N)cnc3cc(OC)c(OC)cc23)cc1O | 254 to 256 |
| O=C1c2ccccc2C(=O)N1Cc1noc(-c2ncn3c2[C@@H]2CCN2C(=O)c2c(Cl)cccc2-3)n1 | 189 to 192 |
| Fc1ccc2sccc2c1 | 21 to 22 |
| CCc1cnc2c(c1)S(=O)(=O)NC2=O | 199 to 201 |
| CC1(C)CCCNC1C(=O)O (stereo unspecified) | > 305 |
| Cc1nn(C)c(C)c1C(=O)NC1CCCCC1 | 185 to 186 |

| Structure (SMILES) | melting point [°C] |
| --- | --- |
| COC1C(OC(=O)c2ccccc2)C(COC(=O)c2ccccc2)OC1n1ccc(=O)[nH]c1=O (stereo unspecified) | 132 to 134 |
| COc1cccc(N2CC(=O)N(C)C(=O)N2)c1 | 120 to 122 |
| Nc1ccc(N=Nc2ccc([N+](=O)[O-])c(C(F)(F)F)c2)cc1 | 136 |
| Brc1cccc2[nH]cc(Cc3cccnc3)c12 | 173 to 174 |
| CCCCCCCC(=O)OC1CC(=O)NC1=O (stereo unspecified) | 60.5 to 61 |
| COc1cc(CNC(=O)c2nc3scc(COc4ccc(C(=O)O)cc4)c3c(=O)[nH]2)ccc1F | 276 to 281 |
| CCCCOc1cc(F)ccc1[N+](=O)[O-] | 75 to 76 |
| CC(C)N1CCN(C(=O)c2ccc(-c3ccc(=O)n(C)n3)cc2)CC1 | 131 to 132 |
| C[Si](C)(C)Oc1ccc(SSc2ccc(O[Si](C)(C)C)cc2)cc1 | 21 to 22 |
| COc1ccc(OC(CCCN2C3CCC2CNC3)c2ccc(C#N)cc2)cc1OC (stereo unspecified) | 38 to 43 |
| COc1ccc(CCNC(=O)N(O)C(C)C)cc1OC | 113 to 114 |
| COC(=O)N(Cc1ccccc1)[C@H]1CC[C@H](c2ccc(O)cc2)CC1 | 61 to 66 |
| CN1Cc2c(C#CCO)ncn2-c2ccccc2C1=O | 240 to 241 |
| O=C(OC1CCCCC1)c1ncn2c1[C@@H]1CCN1C(=O)c1cc(F)ccc1-2 | 231 to 232 |
| C=CCN1Cc2cnc(C)n2-c2ccc(Cl)cc2C1c1ccccc1F (stereo unspecified) | 140 to 145 |
| CN(C(=O)Nc1ccccc1F)C(Cl)C(Cl)(Cl)Cl (stereo unspecified) | 130 to 141 |
| C=CC(=O)OCCCCCCOc1ccc(C(=O)O)cc1 | 139 |
| O=C(NCc1ccccn1)Nc1cc(N2CC(c3ccccc3)OC2=O)ccn1 (stereo unspecified) | 190 to 191 |
| CCCc1c(O)c(O)c(C(=O)O)c2cc(Cc3ccccc3)c(C)cc12 | 183 to 184 |
| CC(C)CCN1C(=O)C(N)C(=O)N(c2ccccc2F)c2ccccc21 (stereo unspecified) | 125 to 160 |
| COC(=O)c1ccccc1-n1c(CCl)nc2ccc(C(F)(F)F)cc2c1=O | 169 to 170 |
| NCCCCc1cnc(-c2ccccc2)s1 | 62 to 64 |

Reference: a melting point compilation (Tetko et al.; mined from patent text by program, amines drawn as free bases though some values may be those of a salt)
